Reference: patent US20150216871A1, “Use of a Humic Acid Preparation for Treating Warm-Blooded Animals” (WH […] WEINBÖHLA GMBH, priority 2012, published 2015)

Assays:
Bacillus badius = experiment: MIC of glyphosate and neutralisation by CLK-GA, micro dilution method in RCM Bouillon; assay type: cell-based
Source text: (§1) The pathogen Enterococcus faecalis was isolated from the microalgae Chlorella vulgaris to citrate-acid-tween-carbonate (CATC) agar. Suspicious colonies (gram positive, catalase negative cocci) were inoculated to blood agar plates (oxoid) and differentiated by using biochemical tests. The species differentiation was confirmed by means of MALDI-TOF-MS. The isolation of the pathogen Bacillus badius was done from Chlorella vulgaris to blood agar (oxoid). The species differentiation was done based on biochemical parameters. The confirmation was done by means of MALDI-TOF-MS.
(§2) Commercially available glyphosate preparation Roundup UltraMax® (450 g/l glyphosate as isopropylamine salt on SL formulation) was used for the test.
(§3) The value for the minimal inhibitory concentration of glyphosate for the indicator germs (MIC) was determined by using micro dilution method (MID) in accordance with the current specifications of the National Committee for Clinical Laboratory Standards (NCCLS). It was carried out for E. faecalis and B. Badius in RCM Bouillon (SIFIN).
(§4) The determination of the neutralising effect of humic acid product CLK-GA for glyphosate was done through glyphosate MIC. The MIC determinations for glyphosate and glyphosate-CLK-GA mixture was carried out in RCM Bouillon as described above. CLK-GA was used in the concentrations of 1.0, 0.5 and 0.25 mg/ml. The neutralisation of glyphosate was carried out in RCM Bouillon in the concentrations of 300 μg/ml, 600 μg/ml, 1200 μg/ml and 2400 μg/ml mixed with 1 mg/ml, 0.5 mg/ml and 0.25 mg/ml CLK-GA and kept overnight at 37° C. After centrifugation (3000 U/min) and filtration of the individual formulations through a centrifugal filter (3Kda, VWR, Mexico)m […] KbE E. faecalis and B. Badius was given to these. After growing it overnight at 37° C., the contents of each tube was spread on CATC agar or blood agar and was evaluated after 48 h.

Enterococcus faecalis = experiment: as above; assay type: cell-based
Source text: as §1, §2, §3, §4

[1] = 10^4 KbE/ml suspension, end concentration 300 μg/ml glyphosate and/or 1 mg/ml CLK-GA

O=C(O)CNCP(=O)(O)O [Glyphosate, glyphosate]
growth / elimination of germs in suspension (Bacillus badius; [1]): growth was absent
MIC (Bacillus badius; Pseudobacillus badius, read-out: MIC values Glyphosate): 150 µg/mL
growth / elimination of germs in suspension (Enterococcus faecalis; [1]): growth was absent
MIC (Enterococcus faecalis; Enterococcus faecalis, read-out: MIC values Glyphosate): 200 µg/mL
